In patent US7846959B2, “Raf modulators and methods of use” (Exelixis, Inc., priority 2004, dated 2010) one finds IC50 data, which are given here for 11 molecules.

Like-named read-outs stand apart in the source and are kept apart here.

One assay has as its target c-Raf (Homo sapiens, UniProt P04049). Briefly: Luciferase-coupled chemiluminescence kinase assay (ATP consumption), c-Raf. It is filed as biochemical. In outline: (§1)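 Compound is first mixed with […] Raf enzyme in 20 mM Tris pH 7.5 containing 10 mM MgCl2, 0.03% TX-100 and 1 mM DTT (30 min, room temperature). ATP then starts a 3 h reaction, and unconsumed ATP is detected by chemiluminescence.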

A further assay addresses B-Raf (Homo sapiens, UniProt P15056). As to the kind of experiment: Luciferase-coupled chemiluminescence kinase assay (ATP consumption), B-Raf. Type of assay: biochemical. The procedure, abridged: as §1
Setting [1] is: read-out: cRaf-1 (inhibition indicated as IC50).
The mark [2] stands for this setting: read-out: bRaf (inhibition indicated as IC50).

Sequence of B-Raf (P15056 whole entry): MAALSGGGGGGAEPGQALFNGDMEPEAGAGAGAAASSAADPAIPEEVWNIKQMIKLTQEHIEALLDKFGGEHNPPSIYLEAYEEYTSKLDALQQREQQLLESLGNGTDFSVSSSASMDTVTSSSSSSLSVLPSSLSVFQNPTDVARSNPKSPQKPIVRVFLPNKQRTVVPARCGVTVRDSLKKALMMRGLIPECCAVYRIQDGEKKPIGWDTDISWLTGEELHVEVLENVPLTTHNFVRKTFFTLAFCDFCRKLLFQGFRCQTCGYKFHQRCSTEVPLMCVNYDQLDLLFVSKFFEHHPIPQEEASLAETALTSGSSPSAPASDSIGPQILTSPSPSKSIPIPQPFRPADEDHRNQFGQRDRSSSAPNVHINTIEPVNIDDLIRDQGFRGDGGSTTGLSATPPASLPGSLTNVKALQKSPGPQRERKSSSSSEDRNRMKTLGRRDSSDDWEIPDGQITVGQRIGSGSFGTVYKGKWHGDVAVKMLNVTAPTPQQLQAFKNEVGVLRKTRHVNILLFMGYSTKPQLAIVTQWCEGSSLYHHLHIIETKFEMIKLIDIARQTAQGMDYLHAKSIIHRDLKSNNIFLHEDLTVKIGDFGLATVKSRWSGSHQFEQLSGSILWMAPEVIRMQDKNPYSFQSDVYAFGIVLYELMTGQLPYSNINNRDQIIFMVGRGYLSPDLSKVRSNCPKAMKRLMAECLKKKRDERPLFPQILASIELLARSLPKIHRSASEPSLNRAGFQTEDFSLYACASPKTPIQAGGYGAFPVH
Sequence of c-Raf (P04049 whole entry): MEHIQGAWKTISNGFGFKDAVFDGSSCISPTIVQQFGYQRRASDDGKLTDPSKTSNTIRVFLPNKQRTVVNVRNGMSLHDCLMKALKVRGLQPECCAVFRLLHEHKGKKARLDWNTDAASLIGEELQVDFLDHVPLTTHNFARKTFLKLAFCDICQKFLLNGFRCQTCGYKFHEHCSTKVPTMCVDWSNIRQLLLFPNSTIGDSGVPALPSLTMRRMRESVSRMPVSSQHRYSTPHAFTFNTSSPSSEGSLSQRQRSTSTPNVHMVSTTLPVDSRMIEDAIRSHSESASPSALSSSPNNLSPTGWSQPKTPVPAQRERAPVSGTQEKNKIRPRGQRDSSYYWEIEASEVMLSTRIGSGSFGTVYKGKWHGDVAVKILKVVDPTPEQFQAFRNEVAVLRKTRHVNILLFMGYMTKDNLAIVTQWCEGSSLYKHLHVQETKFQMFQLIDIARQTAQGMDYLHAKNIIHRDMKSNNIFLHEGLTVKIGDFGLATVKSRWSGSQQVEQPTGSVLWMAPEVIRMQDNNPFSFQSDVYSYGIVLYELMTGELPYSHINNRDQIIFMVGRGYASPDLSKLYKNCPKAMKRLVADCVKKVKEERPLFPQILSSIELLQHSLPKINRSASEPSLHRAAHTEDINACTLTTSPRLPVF

For the molecule `O=C(CCCOCc1ccccc1)Nc1nc2cc(C3(O)c4ccccc4C(=O)N3Cc3ccccc3)ccc2[nH]1` (stereo not shown) [Entry 262, N-{5-[1-hydroxy-3-oxo-2-(phenylmethyl)-2,3-dihydro-1H-isoindol-1-yl]-1H-benzimidazol-2-yl}-4-[(phenylmethyl)oxy]butanamide], the concentration for half-maximal inhibition (IC50) on c-Raf (read-out: cRaf-1 IC50) and on B-Raf (read-out: bRaf IC50) was less than 100 nM each time.

As to `COC(=O)Nc1nc2ccc(C3(O)c4ccccc4C(=O)N3c3cc(N)cc(Cl)c3)cc2[nH]1` (stereo not shown) [Entry 151, methyl {6-[2-(3-amino-5-chlorophenyl)-1-hydroxy-3-oxo-2,3-dihydro-1H-isoindol-1-yl]-1H-benzimidazol-2-yl}carbamate], the IC50 on c-Raf (read-out: cRaf-1 IC50) and on B-Raf (read-out: bRaf IC50) was less than 100 nM throughout.

With `COC(=O)Nc1nc2cc(C3(O)c4ccccc4C(=O)N3c3cccc(N4CCOCC4)c3)ccc2[nH]1` (stereo not shown) [Entry 290, methyl {5-[1-hydroxy-2-(3-morpholin-4-ylphenyl)-3-oxo-2,3-dihydro-1H-isoindol-1-yl]-1H-benzimidazol-2-yl}carbamate], the IC50 at c-Raf (setting [1]) and at B-Raf (setting [2]) was 1000 to 10000 nM throughout.

In the case of `CCc1cccc(N2C(=O)c3ccccc3C2(O)c2ccc3[nH]c(NC(=O)OC)nc3c2)c1` (stereo not shown) [Entry 178, methyl {5-[2-(3-ethylphenyl)-1-hydroxy-3-oxo-2,3-dihydro-1H-isoindol-1-yl]-1H-benzimidazol-2-yl}carbamate], the IC50 at c-Raf (read-out: cRaf-1 IC50) and on B-Raf (read-out: bRaf IC50) was less than 100 nM each time.

With `COC(=O)Nc1nc2cc(C3(O)c4ccccc4C(=O)N3c3cccc(N(C)C)c3)ccc2[nH]1` (stereo not shown) [Entry 258, methyl (5-{2-[3-(dimethylamino)phenyl]-1-hydroxy-3-oxo-2,3-dihydro-1H-isoindol-1-yl}-1H-benzimidazol-2-yl)carbamate], the concentration for half-maximal inhibition (IC50) on c-Raf (read-out: cRaf-1 IC50) and at B-Raf (read-out: bRaf IC50) was less than 100 nM in each case.

For the molecule `COC(=O)Nc1nc2cc(C3(O)c4ccccc4C(=O)N3c3cccc(OC)c3)ccc2[nH]1` (stereo not shown) [Entry 137, methyl (5-{1-hydroxy-2-[3-(methyloxy)phenyl]-3-oxo-2,3-dihydro-1H-isoindol-1-yl}-1H-benzimidazol-2-yl)carbamate], the IC50 on c-Raf (read-out: cRaf-1 IC50) and on B-Raf (read-out: bRaf IC50) was less than 100 nM throughout.

For the molecule `O=C(Nc1nc2ccc(C3c4ccccc4C(=O)N3c3cccc(Br)c3)cc2[nH]1)OCCN1CCCCC1` (stereo not shown) [Entry 295, 2-piperidin-1-ylethyl {6-[2-(3-bromophenyl)-3-oxo-2,3-dihydro-1H-isoindol-1-yl]-1H-benzimidazol-2-yl}carbamate], the half-maximal inhibitory concentration (IC50) on c-Raf (setting [1]) is less than 100 nM; at B-Raf (setting [2]) it was 100 to 1000 nM.

With `O=C(Nc1nc2ccc(C3(O)c4ccccc4C(=O)N3Cc3ccccc3)cc2[nH]1)C1CC1(F)F` (stereo not shown) [Entry 259, 2,2-difluoro-N-{6-[1-hydroxy-3-oxo-2-(phenylmethyl)-2,3-dihydro-1H-isoindol-1-yl]-1H-benzimidazol-2-yl}cyclopropanecarboxamide], the IC50 on c-Raf (read-out: cRaf-1 IC50) and at B-Raf (read-out: bRaf IC50) was less than 100 nM throughout.

Regarding `COC(=O)Nc1nc2cc(C3(O)c4ccccc4C(=O)N3c3cccc(C(F)(F)F)c3)ccc2[nH]1` (stereo not shown) [Entry 147, methyl (5-{1-hydroxy-3-oxo-2-[3-(trifluoromethyl)phenyl]-2,3-dihydro-1H-isoindol-1-yl}-1H-benzimidazol-2-yl)carbamate], the IC50 on c-Raf (read-out: cRaf-1 IC50) and on B-Raf (read-out: bRaf IC50) was less than 100 nM each time.

As for `CCNC(=O)Nc1nc2cc(C3(O)c4ccccc4C(=O)N3[C@H](C)c3ccccc3)ccc2[nH]1` (stereo partly drawn) [Entry 157, N-ethyl-N′-(5-{1-hydroxy-3-oxo-2-[(1R)-1-phenylethyl]-2,3-dihydro-1H-isoindol-1-yl}-1H-benzimidazol-2-yl)urea], the IC50 on c-Raf (read-out: cRaf-1 IC50) and on B-Raf (read-out: bRaf IC50) was less than 100 nM throughout.

For the molecule `COC(=O)Nc1nc2ccc(C(=O)c3ccccc3C(=O)Nc3ccc(F)c(Br)c3)cc2[nH]1` [Entry 406, methyl {6-[(2-{[(3-bromo-4-fluorophenyl)amino]carbonyl}phenyl)carbonyl]-1H-benzimidazol-2-yl}carbamate], the IC50 on c-Raf (setting [1]) and on B-Raf (setting [2]) was less than 100 nM in each case.

By IC50 is commonly meant the point on the concentration scale where inhibition reaches its midpoint.
